Nine compounds from ChEMBL document CHEMBL3217536, “Structureactivity relationships of gramicidin S analogs containing (-3-pyridyl)-,-dehydroalanine residues on membrane permeability” (Medchemcomm, 2011) can be followed below.

SMILES strings stand for the structures. Values after ≈ are worked out from the molar mass of the structure shown. Active and inactive are the calls of the source. *1 amine or outer side, *2 acyl side, *3 side chain or, on linkers, in order; H or OH if unused. Where a SMILES comes first, the peptide text is derived from it. [ ]: non-standard residue; d: D form. X1 = O=C(/C(=C/c1cccnc1)N[*:1])[*:2]; X2 = O=C(/C(=C/c1ccccc1)N[*:1])[*:2]; d3Pal = N[C@H](Cc1cccnc1)C(=O)O; Orn = NCCC[C@H](N)C(=O)O

Data set [1] has as its system Escherichia coli. The data set can be described thus: Antimicrobial activity against Escherichia coli K-12 W3110 after 20 hrs by liquid microdilution method in presence of PMBN. The data set is classed as functional. On the technique in general: Dilution methods test growth across graded concentrations, often in twofold steps.
Data set [2] in a line: Hemolytic activity against human erythrocytes. The data set is classed as ADME, cell-based, Erythrocyte. Particulars: read-out: ED50 (the source's name).
In data set [3] the test system is Staphylococcus aureus. The data set can be described thus: Induction of cytoplasmic membrane disruption in Staphylococcus aureus FDA 209P assessed as change in potassium permeability after 30 mins. Format: functional. Particulars: for EC50: 0.5 h, read-out: ED50 (the source's name).
The subject of data set [4] is Escherichia coli. In words: Induction of cytoplasmic membrane disruption in Escherichia coli K-12 W3110 assessed as change in potassium permeability after 30 mins. Format: functional. Conditions: K-12 W3110, 0.5 h, read-out: ED50 (the source's name).
The test system of data set [5] is Escherichia coli. In words: Antimicrobial activity against Escherichia coli K-12 W3110 assessed as decrease in cell survival after 30 mins by colony counting method. Conditions: K-12 W3110, 0.5 h. The data set is classed as functional.
Data set [6] has as its system Staphylococcus aureus. The data set can be described thus: Antimicrobial activity against Staphylococcus aureus FDA 209P after 20 hrs by liquid microdilution method. Format: functional.
Data set [7] has as its system Escherichia coli. The data set can be described thus: Antimicrobial activity against Escherichia coli K-12 W3110 after 20 hrs by liquid microdilution method. Format: functional. Particulars: K-12 W3110, 20 h.
In data set [8] the test system is Staphylococcus aureus. In words: Antimicrobial activity against Staphylococcus aureus FDA 209P assessed as decrease in cell survival after 30 mins by colony counting method. The data set is classed as functional. Conditions: 0.5 h.

For orientation: LC50 means the concentration that kills 50% of the test population. For orientation: MIC means the smallest concentration in the dilution series that meets the test's criterion for growth inhibition.

For `CO[C@@H]1[C@@H](OC(N)=O)[C@@H](O)[C@H](Oc2ccc3c(O)c(NC(=O)c4ccc(O)c(CC=C(C)C)c4)c(=O)oc3c2C)OC1(C)C`, the outcome with Escherichia coli [1] was Active.
In the case of `CC(C)C[C@@H]1NC(=O)[C@H](C)NC(=O)[C@H](C(C)C)NC(=O)[C@@H]2CCCN2C(=O)/C(=C/c2cccnc2)NC(=O)[C@H](CC(C)C)NC(=O)[C@H](C)NC(=O)[C@H](C(C)C)NC(=O)[C@@H]2CCCN2C(=O)/C(=C/c2cccnc2)NC1=O` (cyclo(AL[X1]PVAL[X1]PV)), the HC50 in data set [2] stood at 50 µM. Further, the EC50 is 50 µM with Staphylococcus aureus [3] and > 100 µM in the data set on Escherichia coli [4]. The LC50 with Escherichia coli [5] was > 100 µM; in the data set on Staphylococcus aureus [8], 50 µM. The results for the MIC against Staphylococcus aureus [6] and against Escherichia coli [7] were 114 µM (≈ 120 µg/mL) and > 114 µM, respectively.
As for `CC(C)C[C@@H]1NC(=O)[C@H](C)NC(=O)[C@H](C(C)C)NC(=O)[C@@H]2CCCN2C(=O)/C(=C/c2cccnc2)NC(=O)[C@H](CC(C)C)NC(=O)[C@H](CCCN)NC(=O)[C@H](C(C)C)NC(=O)[C@@H]2CCCN2C(=O)/C(=C/c2cccnc2)NC1=O` (cyclo(AL[X1]PV[Orn]L[X1]PV)), the HC50 in data set [2] is 50 µM. Moreover, the EC50 with Staphylococcus aureus [3] was 10 µM; in the data set on Escherichia coli [4], > 100 µM. The LC50 was > 100 µM with Escherichia coli [5] and 10 µM in the data set with Staphylococcus aureus [8]. In addition, the MIC stood at 13 µM (≈ 14.3 µg/mL) against Staphylococcus aureus [6] and 106 µM (≈ 116 µg/mL) in the data set with Escherichia coli [7].
Regarding `CC(C)C[C@@H]1NC(=O)[C@H](CCCN)NC(=O)[C@H](C(C)C)NC(=O)[C@@H]2CCCN2C(=O)/C(=C/c2cccnc2)NC(=O)[C@H](CC(C)C)NC(=O)[C@H](CCCN)NC(=O)[C@H](C(C)C)NC(=O)[C@@H]2CCCN2C(=O)/C(=C/c2cccnc2)NC1=O` (cyclo(L[X1]PV[Orn]L[X1]PV[Orn])), the HC50 in data set [2] was > 100 µM. In the data set on Staphylococcus aureus [3], the Activity result is “Dose-dependent effect”. Also, the EC50 came out at 5 µM in the data set on Staphylococcus aureus [3] and 50 µM with Escherichia coli [4]. In addition, the figures for the LC50 with Escherichia coli [5] and in the data set with Staphylococcus aureus [8] were 50 µM and 10 µM, respectively. Besides, the MIC was 6 µM (≈ 6.84 µg/mL) with Staphylococcus aureus [6] and 26 µM (≈ 29.6 µg/mL) against Escherichia coli [7]. The result in the data set with Escherichia coli [1] was inactive.
In the case of `CC(C)C[C@@H]1NC(=O)[C@H](CCCN)NC(=O)[C@H](C(C)C)NC(=O)[C@@H]2CCCN2C(=O)/C(=C/c2ccccc2)NC(=O)[C@H](CC(C)C)NC(=O)[C@H](CCCN)NC(=O)[C@H](C(C)C)NC(=O)[C@@H]2CCCN2C(=O)/C(=C/c2cccnc2)NC1=O` (cyclo(L[X2]PV[Orn]L[X1]PV[Orn])), the HC50 in data set [2] is 20 µM. Also, the EC50 in the data set with Staphylococcus aureus [3] amounted to 5 µM; with Escherichia coli [4] it was 50 µM. Besides, the LC50 with Escherichia coli [5] came out at 50 µM; with Staphylococcus aureus [8] it was 10 µM. Besides, the results for the minimum inhibitory concentration (MIC) against Staphylococcus aureus [6] and in the data set on Escherichia coli [7] were 3 µM (≈ 3.42 µg/mL) and 26 µM (≈ 29.6 µg/mL), respectively.
Consider `CC(C)C[C@@H]1NC(=O)[C@H](CCCN)NC(=O)[C@H](C(C)C)NC(=O)[C@@H]2CCCN2C(=O)/C(=C/c2ccccc2)NC(=O)[C@H](CC(C)C)NC(=O)[C@H](CCCN)NC(=O)[C@H](C(C)C)NC(=O)[C@@H]2CCCN2C(=O)/C(=C/c2ccccc2)NC1=O` (cyclo(L[X2]PV[Orn]L[X2]PV[Orn])), for which the HC50 in data set [2] is 5 µM. The results for the EC50 in the data set on Staphylococcus aureus [3] and in the data set with Escherichia coli [4] were 5 µM and 20 µM, respectively. Further, the median lethal concentration (LC50) is 20 µM in the data set with Escherichia coli [5] and 5 µM in the data set on Staphylococcus aureus [8]. Further, the MIC in the data set with Staphylococcus aureus [6] amounted to 3 µM (≈ 3.41 µg/mL); with Escherichia coli [7], 26 µM (≈ 29.6 µg/mL).
Regarding `CC(C)C[C@@H]1NC(=O)[C@H](CCCN)NC(=O)[C@H](C(C)C)NC(=O)[C@@H]2CCCN2C(=O)[C@@H](Cc2cccnc2)NC(=O)[C@H](CC(C)C)NC(=O)[C@H](CCCN)NC(=O)[C@H](C(C)C)NC(=O)[C@@H]2CCCN2C(=O)[C@@H](Cc2cccnc2)NC1=O` (cyclo(L[d3Pal]PV[Orn]L[d3Pal]PV[Orn])), the HC50 in data set [2] was > 100 µM. Besides, the EC50 was determined as 20 µM in the data set with Staphylococcus aureus [3] and 50 µM in the data set with Escherichia coli [4]. The LC50 in the data set with Escherichia coli [5] was found to be 100 µM; in the data set on Staphylococcus aureus [8], 20 µM. Further, the MIC in the data set on Staphylococcus aureus [6] and in the data set on Escherichia coli [7] was 50 µM (≈ 57.2 µg/mL) throughout.
Regarding `CC(C)C[C@@H]1NC(=O)[C@H](CCCN)NC(=O)[C@H](C(C)C)NC(=O)[C@@H]2CCCN2C(=O)[C@@H](Cc2ccc(O)cc2)NC(=O)[C@H](CC(C)C)NC(=O)[C@H](CCCN)NC(=O)[C@H](C(C)C)NC(=O)[C@@H]2CCCN2C(=O)[C@@H](Cc2ccc(O)cc2)NC1=O` (cyclo(L[dY]PV[Orn]L[dY]PV[Orn])), in data set [2], the HC50 was found to be 10 µM. For the same compound, the results for the MIC in the data set on Staphylococcus aureus [6] and in the data set on Escherichia coli [7] were 3 µM (≈ 3.52 µg/mL) and 26 µM (≈ 30.5 µg/mL), respectively.
Regarding `CC(C)C[C@@H]1NC(=O)[C@H](CCCN)NC(=O)[C@H](C(C)C)NC(=O)[C@@H]2CCCN2C(=O)[C@@H](Cc2ccccc2)NC(=O)[C@H](CC(C)C)NC(=O)[C@H](CCCN)NC(=O)[C@H](C(C)C)NC(=O)[C@@H]2CCCN2C(=O)[C@@H](Cc2ccccc2)NC1=O` [GRAMICIDIN S] (cyclo(L[dF]PV[Orn]L[dF]PV[Orn])), the HC50 in data set [2] was found to be 5 µM. In addition, the Activity result in the data set with Staphylococcus aureus [3] is “Dose-dependent effect”. Besides, the EC50 in the data set on Staphylococcus aureus [3] was 2 µM; in the data set on Escherichia coli [4], 20 µM. For the same compound, the figures for the LC50 with Escherichia coli [5] and with Staphylococcus aureus [8] were 20 µM and 5 µM, respectively. Also, the MIC against Staphylococcus aureus [6] amounted to 3 µM (≈ 3.42 µg/mL); with Escherichia coli [7], 13 µM (≈ 14.8 µg/mL); in the data set on Escherichia coli [1] (K-12 W3110, 20 h), 4 µg/mL.
